Measurements taken from patent US8569286B2, “Notch pathway signaling inhibitor compound” (Eli Lilly and Company, priority 2011, dated 2013).

What was measured:
[1] = test system: mouse Notch 1 (nuclear N1ICD signal); assay: Notch1 N1ICD Nuclear Accumulation Cellular Imaging Assay; assay type: cell-based; settings: HEK293ΔE12 cells, 24 hours treatment, n=7
Method: (§1) HEK293ΔE12 cells (HEK293 cells are engineered to stably express mouse Notch 1 cDNA coding for amino acid 1703-2183, NP_032740.3, with 23 amino acid signal peptide sequence, […] (SEQ ID NO:1), at its N-terminus) are plated at 5000 cells/well in 96 well plates, incubated in Dulbecco's Modified Eagle's Medium-high glucose with 5% fetal bovine serum at 37° C., 5% CO2 for 24 hours. Cells are treated with test compound, dosing at 10 points of 1:3 dilutions across the range of 1000 nM to 0.05 nM, and with final dimethyl sulfoxide (DMSO) concentration at 0.2%. […] Plates are scanned with ACUMEN EXPLORER™ Laser-scanning fluorescence microplate cytometer (TTP LABTECH LTD) to measure total cell nuclear count/well and total nuclear area/well with fluorescence at 655 nm-705 nm (emission of DNA bound propidium iodide) and fluorescence of antibody binding to N1ICD in nuclear region at 505 nm-530 nm. The main assay output is a ratio of total fluorescence of nuclear N1ICD to total nuclear area, the normalized nuclear N1ICD signal. […] Concentration response and the IC50 are determined by curve fitting to a four parameter logistic for the nuclear N1ICD signal, while the % cell number is plotted in the same graph for cytotoxicity profiling.

HEK293ΔE12 cells = assay: Relative cytotoxicity profiling (% cell number) in the N1ICD imaging assay; assay type: cell-based; settings: 24 hours treatment
Method: as §1

N1ICD cleavage (Notch1) = assay: Inhibition of N1ICD cleavage in human tumor cell lines (N1ICD ELISA); assay type: cell-based; settings: 24 hours treatment
From the text: To evaluate potency of Compound 1 in its ability to inhibit N1ICD cleavage, several human tumor cell lines are utilized. A2780 is a human ovarian cell line (Sigma-Aldrich, No. 93112519); MIA PaCa-2 is a human pancreas cell line (ATCC No. CRL-1420); BxPC-3 is a human pancreas cell line (ATCC No. CRL-1687); SW480 is a human colorectal cell line (ATCC No. CCL-228); HCT 116 is a human colorectal cell line (ATCC No. CCL-247); DLD-1 is a human colorectal cell line (ATCC No. CCL-221); MDA-MB-231 is a human mammary gland cell line (ATCC No. HTB-26); U-87 MG is a human glioblastoma cell line (ATCC No. HTB-14); A375 is a human malignant melanoma cell line (ATCC No. CRL-1619); CCRF-CEM is a human acute lymphoblastic leukemia (ALL) cell line (ATCC No. CCL-119); SUP-T1 is a human T-cell lymphoblastic leukemia cell line (ATCC No. CRL-1942); K-562 is a human chronic myelogenous leukemia (CML) cell line characterized by the presence of a fusion transcript comprised of the Bcr and Abl1 genes (ATCC No. CCL-243); Jurkat, Clone E6-1 is a human acute T-cell leukemia cell line (ATCC No. TIB-152); MOLT-3 is a human acute lymphoblastic leukemia (ALL) cell line (ATCC No. CRL-1552); MOLT-4 is a human acute lymphoblastic leukemia (ALL) cell line (ATCC No. CRL-1582); HEL 92.1.7 is a human erythroleukemia cell line (ATCC No. TIB-180). Each of the cell lines are obtained from the American Type Culture Collection (ATCC) at the ATCC number stated, except the A2780 cell line which is obtained from Sigma-Aldrich at the stated catalog number. The cells are grown in their respective culture media at 37° C. in 5% CO2 with humidity in the atmosphere. Cell culture media for A2780 human ovarian carcinoma is RPMI-1640 (without phenol red) with 2.05 mM L-glutamine, added 2 mM L-glutamine, 0.01 mg/ml insulin and 10% fetal bovine serum (FBS); for HCT 116 human colorectal carcinoma is McCoy's 5A with 1.5 mM L-glutamine, 0.075% Na-bicarbonate and 10% FBS; for SW480 human colorectal carcinoma is RPMI-1640 with 2.05 mM L-glutamine, 20 mM HEPES and 10% FBS; U-87 MG human glioblastoma is Minimal Essential Medium/Earl's Balanced Salt Solution with 2 mM L-glutamine, 0.1 mM Non-essential amino acids (NEAA), 1 mM Na-pyruvate, and 10% FBS; for MIA PaCa-2 human pancreatic carcinoma is Dulbecco's Modified Eagles Medium (DMEM) without Na-pyruvate, with high glucose ([…]), 4 mM L-glutamine, 2.5% horse serum and 10% FBS; for K-562 human CML is DMEM with high glucose ([…]), 4 mM L-glutamine, 10 mM HEPES, 0.1 mM NEAA, 1 mM Na-pyruvate and 10% FBS; for Jurkat, Clone E6-1 human acute T cell leukemia is RPMI-1640 with 2.05 mM L-glutamine, 2.5 g/L glucose, 10 mM HEPES, 1 mM Na-pyruvate, 0.075% Na-bicarbonate and 10% FBS; for A-375 human malignant melanoma and MDA-MB-231 human breast adenocarcinoma is DMEM with high glucose ([…]), 4 mM L-glutamine and 10% FBS; for BxPC-3 human pancreatic adenocarcinoma, DLD-1 human colorectal adenocarcinoma, SUP-T1 human lymphoblastic leukemia, MOLT-3 human ALL, Molt-4 human ALL, CCRF-CEM human ALL, and HEL 92.1.7 human erythroleukemia is RPMI-1640 with 2.05 mM L-glutamine, 2.5 g/L glucose, 20 mM HEPES, 1 mM Na-pyruvate, and 10% FBS. When 80-90% confluent, cells are treated with compound, dosing at 10 points of 1:3 dilutions across the range of 50 nM to 0.0025 nM, and with final dimethyl sulfoxide (DMSO) concentration at 0.01%. […]

major CYP450 enzymes = assay: CYP450 inhibition and induction; assay type: in vitro ADME
[2] = Metabolism by liver microsomes optimized for oxidative CYP450 metabolism; assay type: in vitro ADME
[3] = In vivo pharmacokinetics, excretion and metabolism in rats
Method: Compound 1 was evaluated in vivo in bile-duct cannulated rats to study systemic pharmacokinetics (PK), excretion, and metabolism. In vivo 51% of the IV dose was excreted unchanged, predominately in the urine, with low (2% of parent) systemic exposure to an active N-dealkylated metabolite, 4,4,4-trifluoro-N-[(1S)-1-methyl-2-oxo-2-[[(7S)-6-oxo-5,7-dihydropyrido[2,3-d][3]benzazepin-7-yl]amino]ethyl]butanamide.

[4] = In vivo metabolism and excretion in dogs
[5] = Atropisomer equilibrium in solution (1H NMR and LC-MS); assay type: physicochemical; settings: ambient temperature, after 24 hours
Method: In aqueous solutions, 8-9% of atropisomer 2 (minor atropisomer) is detected by ^1H NMR and LC-MS in equilibrium with atropisomer 1 (major atropisomer) at ambient temperature after 24 hours. In organic solvents, at ambient temperature after 24 hours, approximately 1-2% of atropisomer 2 is detected by ^1H NMR and LC-MS in equilibrium with atropisomer 1. Although detectable by ^1H NMR and LC-MS analysis, atropisomer 2 is not isolable.

- IC50 [1]: 0.41 nM
- IC50 (N1ICD cleavage (Notch1); A2780 cells): 1.03 nM
- IC50 (N1ICD cleavage (Notch1); A-375 cells): 0.48 nM
- IC50 (N1ICD cleavage (Notch1); BxPC-3 cells): 0.39 nM
- IC50 (N1ICD cleavage (Notch1); CCRF-CEM cells): 0.76 nM
- IC50 (N1ICD cleavage (Notch1); DLD-1 cells): 0.98 nM
- IC50 (N1ICD cleavage (Notch1); HCT 116 cells): 0.72 nM
- IC50 (N1ICD cleavage (Notch1); HEL 92.1.7 cells): 0.23 nM
- IC50 (N1ICD cleavage (Notch1); Jurkat cells): 5.95 nM
- IC50 (N1ICD cleavage (Notch1); K-562 cells): 0.74 nM
- IC50 (N1ICD cleavage (Notch1); MDA-MB-231 cells): 0.5 nM
- IC50 (N1ICD cleavage (Notch1); MIA PaCa-2 cells): 0.71 nM
- IC50 (N1ICD cleavage (Notch1); MOLT-3 cells): 0.61 nM
- IC50 (N1ICD cleavage (Notch1); MOLT-4 cells): 0.74 nM
- IC50 (N1ICD cleavage (Notch1); SUP-T1 cells): 1.24 nM
- IC50 (N1ICD cleavage (Notch1); SW480 cells): 0.1 nM
- IC50 (N1ICD cleavage (Notch1); U-87 MG cells): 0.28 nM
- inhibition or induction of the major CYP450 enzymes (major CYP450 enzymes): not an inhibitor or inducer
- dose excreted unchanged ([3]; bile-duct cannulated rats, IV dose, predominately in the urine): 51%
- major oxidative metabolites in circulation or excreta ([3]; rats in vivo): not observed
- major oxidative metabolites in circulation or excreta ([4]; dogs in vivo): not observed
- atropisomer 2 (minor atropisomer) in equilibrium with atropisomer 1 ([5]; aqueous solutions): 8-9%
- atropisomer 2 (minor atropisomer) in equilibrium with atropisomer 1 ([5]; organic solvents): 1-2%
Compound: C[C@H](NC(=O)CCC(F)(F)F)C(=O)N[C@@H]1C(=O)N(CCO)c2ncccc2-c2ccccc21 [Compound 1, 4,4,4-trifluoro-N-[(1S)-2-[[(7S)-5-(2-hydroxyethyl)-6-oxo-7H-pyrido[2,3-d][3]benzazepin-7-yl]amino]-1-methyl-2-oxo-ethyl]butanamide]
- concentration up to which cell number is not affected (cytotoxicity profiling) (HEK293ΔE12 cells): > 1000 nM
- metabolism by liver microsomes [2]: not metabolized to any appreciable extent
- additional circulating metabolites (profiling of rat plasma) ([3]; rat plasma): absence of additional circulating metabolites
- clearance by excretion of parent compound ([4]; bile-duct intact dogs): appreciable clearance by excretion of parent compound
- major circulating active metabolites ([4]; bile-duct intact dogs): absence of major circulating active metabolites
